The values below come from patent US6949679B1, “Polyamine transport inhibitors” (Universite Laval, priority 1998, dated 2005).

By Ki is commonly meant the dissociation constant of the complex between target and ligand, obtained from inhibition or displacement.

Data set [1] in a line: Stability in buffered aqueous solution. It counts as physicochemical. The following applies: buffered at pH=7.0.
Data set [2] in a line: Stability in biological media (cell-free, HPLC). The following applies: IMEM, 48 hours, 37° C. In kind it is physicochemical. As to the method: DESC stability was tested by incubating the compound dissolved (at 50 μM) in PBS or in IMEM medium containing 10% (v/v) fetal bovine serum plus or minus 1 mM aminoguanidine in a humid 5% CO2 atmosphere at 37° C. and in the absence of cells. At indicated times, trichloroacetic acid was added to aliquots of this solution to a final concentration 10% (w/v) and the samples directly analyzed by HPLC as above.
The inability of DESC to block the biological effect of exogenous spermidine, even when present at large molar excesses, might have been caused by its degradation in growth media. To assess this hypothesis, DESC solutions (20 μM) made in PBS or in sterile IMEM medium enriched with 10% (v/v) FBS were incubated for 20 minutes or 48 hours under cell-free conditions at 37° C. in a humid 5% CO2 atmosphere, and the polyamine analog was then analyzed by ion-pair reversed-phase HPLC. After 48 hours, degradation of DESC to two new amine-containing derivatives occurred in IMEM (FIG. 9A, B) but not in PBS (FIG. 9C), as evidenced by the appearance of a major (compound 1) and minor (compound 2) peaks of o-phthaldialdehyde-reactive material eluting earlier than DESC. […] After 48 hours, i.e. the interval at which freshly made DESC-containing media were added to cell cultures in growth experiments, 40% of the DESC originally present had been decomposed by IMEM. […]

Data set [3] concerns ZR-75-1 cells. The data set is described as follows: Time course of intracellular [3H]spermidine accumulation in presence of transport antagonists. It counts as cell-based, human. To be noted: 200 μM DESC (40-fold excess), 5 μM [3H]spermidine, after 6 hours. The procedure:
The time course of intracellular accumulation of spermidine in the presence of transport antagonists was determined by incubating ZR-75-1 cells in 24-well plates with DESC (50 or 200 μM) or MESC (200 μM) in dissolved in MEZR medium containing 5 μM [^3H]spermidine in the presence or absence of cycloheximide (CHX, 200 μM), and harvesting at the indicated times for the determination of intracellular radioactive contents, as described above for polyamine uptake assays.

In data set [4] the test system is ZR-75-1 cells. The experiment in a line: Reversal of DFMO-induced growth inhibition by exogenous spermidine. The following applies: 50 μM DESC, DESC:spermidine ratio up to 500. It counts as cell-based, human. As to the method: For growth studies, ZR-75-1 cells were cultured in MEZR medium or in phenol red-free RPMI 1640 supplemented with 2 mM L-glutamine, 1 mM sodium pyruvate, 15 mM Hepes, antibiotics, 1 nM 17β-estradiol, 0.5 μg of bovine insulin per ml and 5% (v/v) charcoal-treated fetal bovine serum (SD medium), as indicated in the text. When polyamines or polyamine analogs were added to serum-containing media, 1 mM aminoguanidine was added to inhibit bovine serum amine oxidase (BSAO) activity (Morgan, D. M. L. 1989, in The Physiology of Polyamines (Bachrach, U., and Heimer, Y. M. eds) Vol. I, pp. 203-229, CRC Press, Boca Raton). The effect of the transport inhibitors on cell growth was measured by incubating ZR-75-1 cells for 11 days in medium supplemented with antagonist, polyamines and/or 1 mM DFMO as indicated, followed by colorimetric determination of DNA content with 3,4-diaminobenzoic acid (Simard, J., Dauvois, S., Haagensen, D. E., Lėvesque C., Mėrand, Y. and Labriė, F. 1990. Endocrinology 126: 3223-3231).
This possibility was assessed by comparing the ability of DESC to prevent the reversal of DFMO-induced growth inhibition by increasing concentrations of exogenous spermidine.

Data set [5] concerns polyamine transporter. The data set is described as follows: Inhibition of [14C]spermine uptake in ZR-75-1 cells. To be noted: 3μM substrate (Example 11), read-out: Ki, [14C]spermine transport. In kind it is cell-based, human.
For data set [6] the following is noted: MESC: amino group neighboring the amide linkage; cited from earlier work.

As for `NCCCNCCCC(NCCCN)C(=O)NCCSSCCNC(=O)C(CCCNCCCN)NCCCN` (stereo not drawn) [DESC, 2,2′-dithiobis(N-ethyl-spermine-5-carboxamide)], in data set [1], the “Stability in aqueous solutions” value is “stable for months”. For the same compound, the “DESC originally present decomposed” value in data set [2] came to 40%. The “Decrease of net spermidine accumulation” value in data set [3] is reported as 50%. In data set [4], the “Ability to prevent reversal of DFMO-induced growth inhibition by spermidine” value is given as “unable to prevent the reversal”. In data set [5], the Ki was 17 µM.
As to `NCCCNCCCC(NCCCN)C(=O)NCCS` (stereo not drawn) [MESC, N-(2-mercaptoethyl)spermine-5-carboxamide], the “pKa of secondary amino group of the spermine head” value in data set [6] was 5.5.
